The source of these data is patent US10640495B2, “Heterocycle derivatives having TrkA inhibitory activity” (Shionogi & Co., Ltd., priority 2015, dated 2020).

SMILES strings stand for the structures.

For one test, the target named is human TrkA (Homo sapiens (Human), UniProt P04629). Briefly: Human TrkA inhibition assay (Test Example 2). The format is biochemical. The note with it: Table 152, human TrkA inhibition; read-out: IC50_nM. The essentials: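 Recombinant TrkA (1 nmol/L) was preincubated 15 min at room temperature with compound in HEPES/MgCl2/DTT buffer, then reacted with FL-peptide 27 (1.5 μmol/L) and ATP (500 μmol/L) for 120 min at 37 °C. After EDTA stop, substrate phosphorylation was read by microfluidic mobility shift. IC50 came from logistic regression over 3-fold dilution series.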
human TrkA, sequence (P04629 440-796): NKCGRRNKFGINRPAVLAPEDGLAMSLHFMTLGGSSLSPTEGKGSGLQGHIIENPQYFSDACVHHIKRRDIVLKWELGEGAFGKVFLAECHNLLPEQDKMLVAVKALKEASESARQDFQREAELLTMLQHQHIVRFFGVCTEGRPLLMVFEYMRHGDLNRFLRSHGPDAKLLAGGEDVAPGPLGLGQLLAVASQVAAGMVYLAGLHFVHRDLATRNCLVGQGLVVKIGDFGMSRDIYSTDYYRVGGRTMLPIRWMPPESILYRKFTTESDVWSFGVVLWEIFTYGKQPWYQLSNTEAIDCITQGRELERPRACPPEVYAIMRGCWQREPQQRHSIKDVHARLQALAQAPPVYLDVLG
As to `COCCC1C[C@H](NC(=O)Nc2c(C)c(-c3cnn(C)c3)nn2-c2ccccc2)[C@@H](c2ccccc2)O1` (stereo partly shown) [Compound I-17], the IC50 was greater than 1000 nM. As to `COCCC1C[C@@H](NC(=O)Nc2c(C)c(-c3ccc(=O)[nH]c3)nn2-c2ccccc2)[C@H](c2ccccc2)O1` (stereo partly shown) [Compound I-18], the IC50 is less than 100 nM. Regarding `COCCC1C[C@@H](NC(=O)Nc2c(C)c(-c3ccc(OCc4ccccc4)nc3)nn2-c2ccccc2)[C@H](c2ccccc2)O1` (stereo partly shown) [Compound I-14], the IC50 was less than 100 nM.

Still in this test, the particulars now being: Table 153, human TrkA inhibition; read-out: IC50.
In the case of `COCCN1C[C@@H](NC(=O)Nc2c(C)c(-c3cnc4c(cnn4C)c3)nn2-c2ccc(F)cc2)[C@H](c2ccc(F)c(F)c2)O1` (racemic) [Compound I-174], the IC50 is less than 100 nM.

Consider `COCCN1C[C@@H](NC(=O)Nc2c(C)c(-c3cnc4cccnc4c3)nn2-c2ccccc2)[C@H](c2ccc(F)c(F)c2)O1` (racemic) [Compound I-152], for which the IC50 was less than 100 nM. For `COCCN1C[C@@H](NC(=O)Nc2c(C)c(-c3cnc4c(c3)ncn4C)nn2-c2ccccc2)[C@H](c2cccc(F)c2)O1` (racemic) [Compound I-141], the IC50 is less than 100 nM. As to `COCCN1C[C@@H](NC(=O)Nc2c(C)c(-c3ccc(C#N)cc3)nn2-c2ccccc2)[C@H](c2cnc(F)c(F)c2)O1` (racemic) [Compound I-60], the IC50 is less than 100 nM. The same measure, in the same setting: under `COCCN1C[C@@H](NC(=O)Nc2c(C)c(-c3cnc(C)nc3)nn2-c2ccccc2)[C@H](c2cnc(F)c(F)c2)O1` (racemic) [Compound I-45] stands less than 100 nM.

Still in this test, the particulars now being: Table 154, human TrkA inhibition; read-out: IC50.
Turning to `CNC(=O)c1cc(-c2nn(-c3ccc(F)c(F)c3)c(NC(=O)N[C@@H]3CN(CCOC)O[C@H]3c3ccc(F)c(F)c3)c2C)cnc1OC` (racemic) [Compound I-181], the IC50 is less than 100 nM. Still for that read-out and setting: under `CNS(=O)(=O)c1cc(-c2nn(-c3ccccc3)c(NC(=O)N[C@@H]3CN(CCOC)O[C@H]3c3ccnc(F)c3)c2C)cn(C)c1=O` (racemic) [Compound I-178] stands less than 100 nM; under `COCCN1C[C@@H](NC(=O)Nc2c(C)c(-c3cnc4c(c3)OCCN4C(=O)OC(C)(C)C)nn2-c2ccccc2)[C@H](c2ccnc(F)c2)O1` (racemic) [Compound I-280], less than 100 nM; under `COCCN1C[C@@H](NC(=O)Nc2c(C)c(-c3cnc4c(c3)OCCN4)nn2-c2ccccc2)[C@H](c2ccnc(F)c2)O1` (racemic) [Compound I-281], less than 100 nM. Same read-out and setting: under `COCCN1C[C@@H](NC(=O)Nc2c(C)c(-c3ccc(N4CCCC4)nc3)nn2-c2ccccc2)[C@H](c2ccnc(F)c2)O1` (racemic) [Compound I-283] stands less than 100 nM.

With `COCCN1C[C@@H](NC(=O)Nc2c(C)c(-c3ccnc(C(=O)NO)c3)nn2-c2ccccc2)[C@H](c2ccc(F)c(F)c2)O1` (racemic) [Compound I-195], the IC50 was less than 100 nM.

On to `COCCN1C[C@@H](NC(=O)Nc2c(C)c(-c3cnc4c(c3)COC4=O)nn2-c2ccccc2)[C@H](c2ccnc(F)c2)O1` (racemic) [Compound I-259], for which the IC50 was less than 100 nM. `COCCN1C[C@@H](NC(=O)Nc2c(C)c(-c3cnc(OC)c(C(=O)NC4CCOCC4)c3)nn2-c2ccc(F)cc2)[C@H](c2ccc(F)c(F)c2)O1` (racemic) [Compound I-184]: the IC50 was less than 100 nM.

The same test, now with this note: Table 155, human TrkA inhibition; read-out: IC50.
Consider `COCCN1C[C@@H](NC(=O)Nc2c(C)c(-n3cnc(C)c3)nn2-c2ccccc2)[C@H](c2ccnc(F)c2)O1` (racemic) [Compound I-346], for which the IC50 is less than 100 nM. `COCCN1C[C@@H](NC(=O)Nc2c(C)c(-c3cc(C)c4nccn4c3)nn2-c2ccccc2)[C@H](c2ccnc(F)c2)O1` (racemic) [Compound I-348]: the IC50 was less than 100 nM. `COCCN1C[C@@H](NC(=O)Nc2c(C)c(-c3cnc4c(c3)N(C(C)=O)CCO4)nn2-c2ccccc2)[C@H](c2ccnc(F)c2)O1` (racemic) [Compound I-341]: the IC50 is less than 100 nM. For `COCCN1C[C@@H](NC(=O)Nc2c(C)c(-c3cnc(N4CCN(C(=O)OCc5ccccc5)CC4)nc3)nn2-c2ccccc2)[C@H](c2ccnc(F)c2)O1` (racemic) [Compound I-371], the IC50 is less than 100 nM. Take `COCCN1C[C@@H](NC(=O)Nc2c(C)c(-c3cnc(OC)nc3)nn2-c2ccccc2)[C@H](c2ccc(F)c(F)c2)O1` [Compound I-407]: the IC50 is less than 100 nM. Regarding `COCCN1C[C@@H](NC(=O)Nc2c(C)c(-c3cnc(N4CC(C)(O)C4)nc3)nn2-c2ccccc2)[C@H](c2ccnc(F)c2)O1` (racemic) [Compound I-479], the IC50 was less than 100 nM. On to `COCCN1C[C@@H](NC(=O)Nc2c(C)c(-c3cnc(N4CCN(CC#N)CC4)nc3)nn2-c2ccccc2)[C@H](c2ccnc(F)c2)O1` (racemic) [Compound I-416], for which the IC50 is less than 100 nM. For the compound `COCCN1C[C@@H](NC(=O)Nc2c(C)c(-c3cnc(N4CC(OC)C4)nc3)nn2-c2ccccc2)[C@H](c2ccnc(F)c2)O1` (racemic) [Compound I-489], the IC50 is less than 100 nM. Still for that read-out and setting: the figure for `COCCN1C[C@@H](NC(=O)Nc2c(C)c(-c3cnn(C)c3)nn2-c2cccc(F)c2)[C@H](c2ccc(F)c(F)c2)O1` [Compound I-510] is less than 100 nM; for `COCCN1C[C@@H](NC(=O)Nc2c(C)c(N3CCN(C)C(=O)C3)nn2-c2ccccc2)[C@H](c2ccc(F)cc2)O1` [Compound I-345] it is less than 100 nM.

Turning to `COCCN1C[C@@H](NC(=O)Nc2c(C)c(-c3cnc4c(c3)c(N3CCN(C)CC3)nn4C)nn2-c2ccccc2)[C@H](c2ccnc(F)c2)O1` (racemic) [Compound I-490], the IC50 is less than 100 nM. `CNC(=O)c1cc(NC(=O)N[C@@H]2CN(CCOC)O[C@H]2c2ccnc(F)c2)n(-c2ccccc2)n1` (racemic) [Compound I-388]: the IC50 is greater than 1000 nM.

Staying with this test, now noted: Table 156, human TrkA inhibition; read-out: IC50.
For `COCCN1C[C@@H](NC(=O)Nc2c(C)c(-c3ccnc(C(=O)OC)c3)nn2-c2ccccc2)[C@H](c2ccc(F)c(F)c2)O1` [Compound I-557], the IC50 is less than 100 nM. As for `COCCN1C[C@@H](NC(=O)Nc2c(C)c(OC3CNC3)nn2-c2ccccc2)[C@H](c2ccc(F)c(F)c2)O1` [Compound I-574], the IC50 was less than 100 nM. With `CCN1C[C@@H](NC(=O)Nc2c(C)c(OCC3CCN(C(C)=O)CC3)nn2-c2ccccc2)[C@H](c2ccc(F)cc2)O1` (racemic) [Compound I-566], the IC50 is less than 100 nM. Turning to `CCN1C[C@@H](NC(=O)Nc2c(C)c(OCC3CCN(C(C)=O)CC3)nn2-c2ccccc2)[C@H](c2ccc(F)c(F)c2)O1` (racemic) [Compound I-563], the IC50 is less than 100 nM.

As to `COCCN1C[C@@H](NC(=O)Nc2c(C)c(OCC3CN(C)CCO3)nn2-c2ccccc2)[C@H](c2ccc(F)c(F)c2)O1` (stereo partly shown) [Compound I-580], the IC50 is less than 100 nM. With `CNC(=O)c1cc(-c2nn(-c3ccccc3)c(NC(=O)N[C@@H]3CN(CCF)O[C@H]3c3ccc(F)c(F)c3)c2C)cnc1OC` (racemic) [Compound I-550], the IC50 was less than 100 nM. For `COCCN1C[C@@H](NC(=O)Nc2c(C)c(-c3ccnc(C)c3)nn2-c2ccccc2)[C@H](c2ccnc(F)c2)O1` (racemic) [Compound I-529], the IC50 was less than 100 nM.

With `COCCN1C[C@@H](NC(=O)Nc2c(C)c(-c3cnc(CN(C)C)nc3)nn2-c2ccccc2)[C@H](c2ccc(F)c(F)c2)O1` (racemic) [Compound I-528], the IC50 is less than 100 nM. Regarding `COCCN1C[C@@H](NC(=O)Nc2c(C)c(-c3ccc(N4CC(OC)C4)nc3)nn2-c2ccccc2)[C@H](c2ccc(F)c(F)c2)O1` [Compound I-558], the IC50 was less than 100 nM. Still for that read-out and setting: under `CCN1C[C@H](NC(=O)Nc2c(C)c(OCC3CCN(C)CC3)nn2-c2ccccc2)[C@@H](c2ccc(F)c(F)c2)O1` [Compound I-535] stands greater than 1000 nM.

Still in this test, the particulars now being: Table 157, human TrkA inhibition; read-out: IC50.
Consider `COCCN1C[C@@H](NC(=O)Nc2c(C)c(CCN(C)C)nn2-c2ccccc2)[C@H](c2ccc(F)c(F)c2)O1` [Compound I-641], for which the IC50 was less than 100 nM. Still for that read-out and setting: the figure for `CCN1C[C@@H](NC(=O)Nc2c(C)c(OCCCC(=O)NCCN(C)C)nn2-c2ccccc2)[C@H](c2ccc(F)c(F)c2)O1` (racemic) [Compound I-667] is less than 100 nM; for `COCCN1C[C@@H](NC(=O)Nc2c(C)c(OCC(=O)NC3CC3)nn2-c2ccccc2)[C@H](c2ccnc(F)c2)O1` (racemic) [Compound I-635] it is less than 100 nM. For the compound `CCN1C[C@@H](NC(=O)Nc2c(C)c(OCCCC(=O)N3CCN(C)CC3)nn2-c2ccccc2)[C@H](c2ccc(F)c(F)c2)O1` (racemic) [Compound I-666], the IC50 was less than 100 nM.

Regarding `CCCN1C[C@@H](NC(=O)Nc2c(C)c(OCC3CCN(C)CC3)nn2-c2ccccc2)[C@H](c2ccc(F)c(F)c2)O1` (racemic) [Compound I-654], the IC50 was less than 100 nM. With `CCN1C[C@@H](NC(=O)Nc2c(C)c(OCC(=O)NCCO)nn2-c2ccccc2)[C@H](c2ccc(F)c(F)c2)O1` (racemic) [Compound I-651], the IC50 was less than 100 nM. As to `CNC(=O)c1cc(-c2nn(-c3ccccc3)c(NC(=O)N[C@@H]3CN(CCC(F)(F)F)O[C@H]3c3ccc(F)c(F)c3)c2C)cnc1OC` (racemic) [Compound I-623], the IC50 lay in the range of 100 to 1000 nM.

Still in this test, the particulars now being: human TrkA 1 nmol/L, ATP 500 μmol/L, 120 min at 37° C.; read-out: IC50 values (TrkA phosphorylation inhibition).
Turning to `COCC[C@@H]1C[C@@H](NC(=O)Nc2c(C)c(-c3cnc(C)nc3)nn2-c2ccccc2)[C@H](c2ccnc(F)c2)O1` [Compound I-237], the IC50 was 8.1 nM. On the same count and under the same terms, under `COCCN1C[C@@H](NC(=O)Nc2c(C)c(-c3cnc4c(c3)c(N=S(C)(C)=O)nn4C)nn2-c2ccccc2)[C@H](c2ccc(F)c(F)c2)O1` [Compound I-298] stands 0.6 nM; under `COCCN1C[C@@H](NC(=O)Nc2c(C)c(-c3ccc4c(cnn4C)c3)nn2-c2ccccc2)[C@H](c2ccc(F)c(F)c2)O1` (racemic) [Compound I-22], 0.81 nM; under `CNC(=O)c1cc(-c2nn(-c3ccccc3)c(NC(=O)N[C@@H]3CN(CCOC)O[C@H]3c3cnc(F)c(F)c3)c2C)cnc1OC` (racemic) [Compound I-73], 1.2 nM.
